Molecular target: T1, MMP-13 (Homo sapiens, UniProt P45452)
T1 construct: purchased Abcam ab139451
Assay: MMP-13 inhibitor screening assay kit (fluorometric)
Type: biochemical
Settings: single-point screening; tested compounds 1.8 to 4.6 µM
Method: The inhibitory activity of the designed compounds against MMP-13 was evaluated using a commercial fluorometric MMP-13 inhibitor assay kit (Abcam, Cambridge, UK), following the manufacturer’s protocol. Solutions of the tested compounds were prepared at concentrations ranging from 1.8 to 4.6 µM. N-isobutyl-N-(4-methoxyphenylsulfonyl)glycyl hydroxamic acid (NNGH), a broad-spectrum inhibitor of matrix metalloproteinases, was used as positive control. […] In parallel, MMP-8 inhibition assays were also conducted using the same concentrations of compounds 3b, 3c, 3d, and 3g.
It should be emphasized that these assays were performed as single-point screening experiments, optimized for rapid qualitative assessment rather than full kinetic characterization. Consequently, the observed differences in activity between MMP-13 and MMP-8 are indicative trends supporting the selectivity predicted by computational studies, including docking, molecular dynamics simulations, and binding free energy calculations, rather than providing definitive quantitative evidence.
The inhibitory activity of the tested compounds was evaluated using the MMP-13 inhibitor screening assay kit (fluorometric) (Abcam, ab139451). The assay performed according to the manufacturer’s instructions. The designed compounds were tested at concentrations ranging from 1.8 to 4.6 µM, to determine their inhibitory activity. […]

For `COc1ccc(S(=O)(=O)N(CC(=O)NO)CC(C)C)cc1` [NNGH, N-isobutyl-N-(4-methoxyphenylsulfonyl)glycyl hydroxamic acid, reference compound], the MMP-13 activity inhibition was ~97%.
